Measurements published in patent US12630804B2, “Blood brain barrier model” (UNIVERSITY OF LANCASHIRE, priority 2016, dated 2026).

Test system: blood brain barrier model
Assay: Permeability of test/known compounds across the blood brain barrier model (TEER and fluorescence in basolateral compartment)
Assay type: in vitro ADME, human
Settings: added to apical side; TEER and appearance in basolateral compartment, 0.5-6 h; aptamers 100 nM cy5-tagged
Protocol: The blood brain barrier model was exposed to a test/known compounds to determine permeability. The final concentration of compound introduced to the apical well was determined previously using a viability assay, and a concentration chosen that minimised toxicity to the BBB cells (<IC50). Test compounds (short DNA oligonucleotide glioma selective aptamers (100 nM) tagged with cy5 (GL21, scrambled) and lipid nanoparticles (NPs) loaded with 0.33 μg/ml docetaxel or 2.87 μg/ml curcumin tagged with rhodamine123 and transferrin ligand) were prepared in house. When the TEER values for the BBB model peaked, 3.33 μg/ml Evans Blue Dye (EBD) was added to the apical side of the BBB model to determine if the barrier formed was intact. The test and control compounds were introduced to the well and time dependent TEER measurements were taken along with fluorescent measurements of samples at time points between 0.5-6 h from the basolateral side of the well for determination of appearance of the fluorescent tagged compounds. […] The activity was calculated as % fluorescence relative to the stock concentration of the NPs and then plotted
The blood brain barrier model was exposed to a test compound and the permeability of the barrier to said test compound was measured and compared to the permeability of the blood brain barrier model to known compounds. […]

Cc1cc(-c2ccc(N=Nc3ccc4c(S(=O)(=O)[O-])cc(S(=O)(=O)[O-])c(N)c4c3O)c(C)c2)ccc1N=Nc1ccc2c(S(=O)(=O)[O-])cc(S(=O)(=O)[O-])c(N)c2c1O.[Na+].[Na+].[Na+].[Na+] [Evan's blue, Evan's Blue]
permeation across blood brain barrier model: no permeability
